Read-outs that look alike come from different tables or passages of the source.
Columns and labels:
[1] = system: promoter of yeast gene YLR303w; assay type: cell-based, Saccharomyces cerevisiae W303; settings: for expression of GFP: SC-YCR303W-pQBI cells (so in the source), summary of Table 14
From the text: (§1) The inventors of the present application understood that the induction of certain yeast genes by toxic substances is caused by the activation of the promoters of the genes by the toxic substances. Thus, the inventors prepared a vector that comprised a polynucleotide sequence comprising the promoter of the yeast gene, which sequence is operably linked to a polynucleotide encoding a marker protein; and transformed yeast cells with the vector. […] The working examples hereinafter illustrate the preparation of such vectors, transformation of yeast cells by use of said vectors, and the detection of toxic substances by use of the transformed cells.
(§2) Promoter assay is a method for determining variations of the level of intracellular genes without destroying cells on the basis of the level of expressed marker genes instead of the expressed mRNA. The gene selected to detect a chemical substance is expressed in the absence of chemical substances, and thus a marker protein also occurs in the absence of chemical substances. In the method according to the present invention, the behavior of yeast genes on the addition of test materials is determined on the basis of the level of expressed marker protein so that the presence or the absence, and the kind of toxic chemical substances are predicted. Thus, it is desired that the production of marker proteins is lower in the absence of chemical substances, and the production of marker proteins is higher in the presence of chemical substances.
(§3) Type YEp shuttle vector pYES2 (pYES2, Cat no: V825-20, Invirtogen Corporation, USA), which can be replicated both in E. coli. and yeast was used as vector (R. W. Old, S. B. Primrose Principles of Gene Manipulation 5th Ed., BAIFUKAN CO., LTD, pp138-165, pp.234-263, 2000). The portion of vector pQBI 63 (Cat no.54-0082, Wako Pure Chemical Industries, Ltd.) corresponding to a marker protein GFP was used as the polynucleotide encoding GFP (SEQ ID No: 6). First, the GFP polynucleotide was inserted into the multiple cloning sites of pYES2 to give a vector. Thereafter, the GAL1 promoter of pYES2 was replaced with the polynucleotide comprising the promoter sequence of the intended yeast gene YLR303w (SEQ ID No: 5) to give an intended plasmid vector. Suitable restriction enzymes were selected, and the insertion of the polynucleotide comprising GFP and the promoter sequence was conducted.
(§4) Next, the yeast Saccharomyces cerevisiae W303 was transformed with the resultant plasmid vector according to the following procedures: • 1) Incubating the yeast Saccharomyces cerevisiae W303 in 200 ml of SD medium under shaking until OD 660 reaches 0.5; • 2) Suspending the collected cells in 5 ml of TE-buffer; • 3) Adding 250 μL of 2.5M lithium acetate; • 4) Dispending each 300 μl, adding 10 μl of above plasmid vector thereto, then incubating the suspensions at 30° C. for 30 minutes; • 5) Adding 700 μl of 50% PEG4000, and incubating the mixture under shaking at 30° C. for 60 minutes; • 6) Giving heat shock (42° C., 5 minutes), and then immediately cooling the mixture; • 7) Washing the mixture twice with 1M sorbitol; and • 8) Seeding it on agar plates made of minimum essential medium.
(§5) The cells of SC-YCR303W-pQBI as prepared in Example 6 were contacted to one of the following compounds. The yeast cells SC-YCR303W-pQBI were incubated at 25° C. in SD medium (Yeast nitrogen base without amino acids (Difco 0919-15)+glucose+amino acids (adenine, histidine, tryptophan)). One of toxic chemical substances as shown below was added to the cells at logarithmic growth phase, and then the cells were further incubated for two hours.

[2] = system: promoter of yeast gene YLL057c; assay type: cell-based, Saccharomyces cerevisiae W303; settings: for expression of GFP: SC-YLL057C-pQBI cells, summary of Table 13
From the text: as §1, §2
as §3, with “PQBI” for “pQBI”, “GALL” for “GAL1”, “YLL057c” for “YLR303w”, “4)” for “5)”
as §4
as §5, with “SC-YLL057C-pQBI” for “SC-YCR303W-pQBI”, “5” for “6”

[3] = cells SC-YCR303W-pQBI (so in the source), 2 hours incubation with the substance at the concentration printed in its row (column Concentrations), GFP fluorescence vs control without chemical
[4] = cells SC-YLL057C-pQBI, 2 hours incubation with the substance at the concentration printed in its row (column Concentrations), GFP fluorescence vs control without chemical

| Compound | Fluorescence [1, 3] | Fluorescence [2, 4] | expression of GFP [1] | expression of GFP [2] | Fluorescence [1] | Fluorescence [2] |
| --- | --- | --- | --- | --- | --- | --- |
| γ-hexachlorocyclohexane [(7)] | − (the number of the cells having a higher fluorescence than the control was under 1%) | − (the number of the cells having a higher fluorescence than the control was under 1%) | – | – | – | – |
| CdCl2 [(2)] | ++ (2% or more) | ++ (2% or more) | induced the expression of GFP | induced the expression of GFP | – | – |
| manganese ethylenebis(dithiocarbamate) [(8)] | – | − (the number of the cells having a higher fluorescence than the control was under 1%) | induced the expression of GFP | – | – | – |
| [CH3][Hg][Cl] [methylmercury chloride] | − (the number of the cells having a higher fluorescence than the control was under 1%) | − (the number of the cells having a higher fluorescence than the control was under 1%) | – | – | – | – |
| Na2As [(1)] | ++ (2% or more) | ++ (2% or more) | induced the expression of GFP | induced the expression of GFP | – | – |
| [Cl][Ni][Cl] [nickel (II) chloride] | – | – | – | – | − (key: −: the number of the cells having a higher fluorescence than the control was under 1%; +: between 1% and 2%; ++: 2% or more) | − (key: −: the number of the cells having a higher fluorescence than the control was under 1%; +: between 1% and 2%; ++: 2% or more) |
| CCCCC(CC)COC(=O)c1ccccc1C(=O)OCC(CC)CCCC (stereo not drawn) | − (the number of the cells having a higher fluorescence than the control was under 1%) | − (the number of the cells having a higher fluorescence than the control was under 1%) | – | – | – | – |
| CCN(CC)C(=O)SCc1ccc(Cl)cc1 [S-4-Chlorobenzyl-N,N-diethylthiocarbamate] | − (the number of the cells having a higher fluorescence than the control was under 1%) | − (the number of the cells having a higher fluorescence than the control was under 1%) | – | – | – | – |
| CCOC(=O)CC(SP(=S)(OC)OC)C(=O)OCC (stereo not drawn) [malathon] | − (the number of the cells having a higher fluorescence than the control was under 1%) | − (the number of the cells having a higher fluorescence than the control was under 1%) | – | – | – | – |
| [K+].[K+].[O]=[Cr](=[O])([O-])[O][Cr](=[O])(=[O])[O-] [potassium bichromate] | − (the number of the cells having a higher fluorescence than the control was under 1%) | − (the number of the cells having a higher fluorescence than the control was under 1%) | – | – | – | – |
| O=S(=O)([O-])[O-].[Cu+2] [copper sulfate (II)] | – | – | – | – | − (key: −: the number of the cells having a higher fluorescence than the control was under 1%; +: between 1% and 2%; ++: 2% or more) | − (key: −: the number of the cells having a higher fluorescence than the control was under 1%; +: between 1% and 2%; ++: 2% or more) |
| [Cl][Sn]([c]1ccccc1)([c]1ccccc1)[c]1ccccc1 [triphenyltin chloride] | − (the number of the cells having a higher fluorescence than the control was under 1%) | − (the number of the cells having a higher fluorescence than the control was under 1%) | – | – | – | – |
| HgCl2 [(3)] | ++ (2% or more) | − (the number of the cells having a higher fluorescence than the control was under 1%) | induced the expression of GFP | – | – | – |
| CC(=O)O.Cc1nc(N)cc2[nH]c3ccccc3c12 [Trp-P-2 (acetate)] | – | – | – | – | − (key: −: the number of the cells having a higher fluorescence than the control was under 1%; +: between 1% and 2%; ++: 2% or more) | − (key: −: the number of the cells having a higher fluorescence than the control was under 1%; +: between 1% and 2%; ++: 2% or more) |

— patent US20050112573A1, “Method of detecting toxic substance” (priority 2001, published 2005)
